Measured values reported in publication PMC9050674, “Structure-based inhibitor design for reshaping bacterial morphology” (Communications Biology, 2022).
Values joined by “and” are separate entries in the source; they are usually repeats but may differ in a detail not shown here. Equal values may be shown once.

What was measured:
Pgp3 = Pgp3 (Campylobacter jejuni, UniProt Q0P921); test: biochemical; parameters: species or system C. jejuni
Method: Because DABCYL/FITC is a typical FRET quencher–fluorophore pair, an increase in fluorescent signals can be directly detected when it is processed by Pgp3 (Tang et al., 2013). The kinetic parameters (kcat = 0.0209 ± 0.0006 s^−1 and KM = 6.6 ± 0.7 µM) for the substrate were obtained by fitting the data to the Michaelis-Menten equation (Supplementary Fig. 8a).
The enzymatic assay for Pgp3 activity was determined using a fluorescein isothiocyanate (FITC) and 4′-([4′-(Dimethylamino)phenyl]-azo)-benzoic acid (DABCYL) pair for FRET. […] The excitation and emission spectra were set at 495 nm and 525 nm, respectively. Pgp3 (0.1 μM) in 20 mM HEPES pH 7.5, 200 mM NaCl, and 0.4 μM of zinc was used in this assay. The reaction was initiated by adding 3 μL of 0.015–2 mM substrate (final 1.56–200 μM) in the total volume of 30 μL of the reaction mixture. Initial velocities were calculated using slopes of fluorescence signal intensity in 3 min after the initiation of the reaction. In order to elucidate the inhibition mechanism of BMK-S301, initial velocities with various concentrations of substrates were measured in the presence of 40 μM BMK-S301. […] The same method was used for the determination of the IC50 values for inhibitors. Inhibitors in each concentration were pre-incubated with 0.1 μM of Pgp3 for 1 h on ice, and initial velocities were determined for 0.1, 10, 50, 100, 200, 500, and 1000 μM of each inhibitor in reaction with 10 μM of substrate. The IC50 values were calculated using GraphPad Prism 7.

C. jejuni (ATCC 33560) = test: Drug accumulation assay (LC-MS)
Method: The accumulation assay was adapted from two different methods[42],[43]. […] The culture was grown overnight at 42 °C under the micro-aerobic condition. The cells were harvested at 6000 g for 15 min and washed with 1 × PBS, followed by resuspension in pre-warmed 1 × PBS to ~10^10 CFU/mL. The cell suspension (1.2 mL) was dispensed into a 24-well plate. Each compound to be examined was added into each well (final concentration = 100 μM). […] After incubation with shaking at 37 °C for 20 min, OD600 of each sample was measured, and the cells were harvested at 6000 g for 10 min at 4 °C. The pellets were resuspended in 250 μL of water, followed by three cycles of Freeze-Thaw with a dry ice/ethanol bath and a 37 °C-heating block in order to extract the compounds from C. jejuni. The cells were pelleted at 13,000 g for 5 min at room temperature. The supernatants (220 μL) were transferred to new tubes. The pellets were resuspended in 100 μL of methanol with vigorous vortexing for 1 min, followed by pelleting as before. The supernatants (100 μL) were combined with the solutions previously collected. The residual cell debris were removed at 20,000 g for 15 min at room temperature. The supernatants (300 μL) were dried with Genevac™ miVac Centrifugal Concentrator at room temperature for 5 h. Finally, the samples were resuspended with appropriate solvents and analyzed by LC-MS.
The suspension was centrifuged and the supernatant was analyzed by LC-MS. LC-MS systems consists of a Bruker impact II ultra-high resolution Qq-time-of-flight mass spectrometer using Hystar 5.0 SR1 software with a Waters Acquity UPLC H-Class system equipped with a quaternary solvent manager, a sample manager-FTN, and a photodiode array detector. The Bruker electrospray ionization source was operated in the positive ion mode, except for BMK-S301 (in the negative ion mode). […] A four-step 10-min LC gradient was as follows: 3 min at 98:2; 3 min to 85:15; 0.1 min to 98:2; 3.9 min at 98:2 for BMK-S101, -S203, and -S301. The ratio of the mobile phases (A = 0.1% formic acid in water, B = 0.1% formic acid in ACN) is given as A:B in LC gradients. […] The quantification was done by integrating the peak areas from extracted-ion chromatograms of corresponding m/z values of each compound.

C. jejuni ATCC 33560 WT = test: Cell morphology change monitored by TEM; type: cell-based, Campylobacter jejuni; conditions: 37 °C, 24 h, KL-L9P used for improved permeability
From the text: Next, we investigated whether our inhibitors could transform C. jejuni from the helical- to curved-rod morphology on exposure to the inhibitors (Fig. 5). […] To investigate the effect of inhibitors on the morphology of C. jejuni cells, we exposed the cells to the inhibitors and checked whether the morphology could be altered.
Cell-morphology change of C. jejuni upon inhibitor treatment was monitored, as described previously with modifications. Briefly, overnight cultures of C. jejuni were harvested from MH agar plates and suspended in MH broth to approximately 1 × 10^6 colony-forming unit (CFU)/mL. A total of 500 μL of the diluted bacterial culture was added into each well of a 24-well plate with 5 μL of two-fold serial dilutions of inhibitor. For the control strain with no inhibitor, the same volume of dilution buffer (20 mM Tris-HCl pH 8.0 and 200 mM NaCl) was used. The plate was incubated under a micro-aerobic condition at 37 °C for 24 h in the static condition. After incubation, 10 μL of the bacterial cultures was placed on formvar/carbon-coated copper grids (200 mesh) and negatively stained with 2% uranyl acetate for 2 s.

Pgp3 WT = Pgp3 WT (Campylobacter jejuni, UniProt Q0P921); test: Isothermal-titration calorimetry (ITC) with Pgp3 WT; type: binding, C. jejuni
Method: The gene encoding the amino-acid sequence of Glu21–Gln273 of Pgp3 from C. jejuni (strain ATCC 33560) was cloned into the expression vector pET-21a (Novagen) producing the recombinant wild-type Pgp3 protein with the C-terminal His6-tag ([…]). The protein expression and purification were conducted according to previously described methods with exception. The HiTrap chelating HP (GE Healthcare) column was washed with the lysis buffer containing 60 mM imidazole and the protein was eluted with a linear gradient from 100 to 500 mM imidazole. The protein was further purified by gel filtration on a HiLoad 16/60 Superdex 200 prep-grade column (GE Healthcare), which was previously equilibrated with 20 mM Tris-HCl pH 8.0 and 200 mM NaCl. The fractions containing the Pgp3 protein were pooled and concentrated to 15 mg mL^−1 for crystallization. The variants of Pgp3 (S169A, R195A, H216A, and H247A) were generated by site-directed mutagenesis using primer sets in Supplementary Table 1 and were purified as described for the WT Pgp3.
Using a micro-syringe, 2.5 μL of each inhibitor (2.25 mM) was added at intervals of 200 s to the Pgp3 solution in the cell with gentle stirring (125 rpm). The same ITC condition was applied to evaluate the KD values of BMK-S101 for each Pgp3 variant. All data were fitted to the single-binding-site model. Fitted curves were generated using GraphPad Prism 7. Data are mean ± SEM from triplicate experiments and the ITC thermograms are representative of triplicate experiments.

Chain of Pgp3 WT (Q0P921 entry or part of it): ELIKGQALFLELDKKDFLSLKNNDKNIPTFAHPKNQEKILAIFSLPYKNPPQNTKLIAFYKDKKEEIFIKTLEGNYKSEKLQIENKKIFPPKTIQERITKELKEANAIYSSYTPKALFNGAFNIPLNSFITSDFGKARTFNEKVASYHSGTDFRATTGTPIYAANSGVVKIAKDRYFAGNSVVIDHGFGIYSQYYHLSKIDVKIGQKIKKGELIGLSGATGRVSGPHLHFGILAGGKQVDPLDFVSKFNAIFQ
Chain of Pgp3 (Q0P921 entry or part of it): as above

CC(=O)N[C@@H](Cc1ccc(S(N)(=O)=O)cc1)C(=O)N[C@H](C)C(=O)NO [BMK-S301]
IC50 (Pgp3): 22 ± 1.4 µM | accumulation fold higher than for BMK-S203 (C. jejuni (ATCC 33560); 100 μM compound): 54 fold | accumulation fold higher than for ciprofloxacin (C. jejuni (ATCC 33560); 100 μM compound): 8 fold | intracellular concentration (accumulation) (C. jejuni (ATCC 33560); 100 μM compound, 37 °C, 20 min, LC-MS, mean): 16.2 ± 1.0 nmole/10^11 CFU | µM (concentration in LC-MS sample) (C. jejuni (ATCC 33560); single replicates (First, Second, Third), total volume 200 (r6-r19) or 100 (r23-r30), source data Fig. 5b): 0.766 µM and 0.686 µM and 1.447 µM and 1.359 µM and 1.398 µM and 0.649 µM | nmol/1011 CFUs (C. jejuni (ATCC 33560); single replicates, source data Fig. 5b): 17.92 nmol/1011 CFUs and 16.41 nmol/1011 CFUs and 16.422 nmol/1011 CFUs and 15.620 nmol/1011 CFUs and 15.458 nmol/1011 CFUs and 15.07 nmol/1011 CFUs | Total nmol (C. jejuni (ATCC 33560); single replicates, total volume 200 or 100, source data Fig. 5b): 0.1532 nmol and 0.1372 nmol and 0.1447 nmol and 0.1359 nmol and 0.1398 nmol and 0.1298 nmol | minimum concentration causing morphological changes (helical to curved-rod) (C. jejuni ATCC 33560 WT): 25 μM | Kd (Pgp3 WT): 3.5 ± 0.2 µM
